Results on 12 molecules are retold here after PubChem BioAssay (NCI).

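1) Cells in 96-well plates. 2) Compound, 48 h, 5 concentrations. 3) Linear interpolation between surrounding doses. 4) Unreached endpoint = highest concentration. Here, GI50 denotes the concentration required for 50% inhibition of growth. TGI marks complete inhibition of growth.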

Some test systems named below: 786-0 renal; HOP-92 NSCLC; HS 578T breast; KM12 colon; NCI-H522 lung; SNB-19 CNS; SR leukemia; T-47D breast; TK-10 renal; UACC-257 melanoma.
Common to all, as to assay: NCI tumour cell line growth inhibition, 48 h

Regarding `Cn1ccnc1C(=O)/C=C/c1ccc(C(=O)Nc2ccccc2O)cc1`, the GI50 in the experiment with 786-0 renal was 1980 nM; with HOP-92 NSCLC, 2110 nM; in the experiment with HS 578T breast it was 2950 nM; in the experiment with KM12 colon, 1960 nM; in the experiment with NCI-H522 lung, 1860 nM; in the experiment with SNB-19 CNS it was 2.6 µM. The GI50 in the experiment with SR leukemia is 307 nM; in the experiment with T-47D breast it was 2680 nM; with TK-10 renal it was 3.2 µM; in the experiment on UACC-257 melanoma, 2.51 µM. In addition, the TGI with 786-0 renal is 4.64 µM; in the experiment on HOP-92 NSCLC, 6.68 µM; with HS 578T breast, 15.9 µM; with KM12 colon, 4.44 µM; with NCI-H522 lung, 5.47 µM; with SNB-19 CNS it was 11.5 µM. Also, the TGI in the experiment on SR leukemia was determined as 6.55 µM; in the experiment with T-47D breast it was 10.8 µM; with TK-10 renal it was 12.7 µM; in the experiment with UACC-257 melanoma, 13.3 µM.
For `c1ccc2c(-c3nc4ccccc4[nH]3)cccc2c1`, the GI50 with 786-0 renal is 5500 nM; with HOP-92 NSCLC it was 4270 nM; with HS 578T breast, 2490 nM; in the experiment with KM12 colon it was 2260 nM; in the experiment on NCI-H522 lung, 2190 nM; with SNB-19 CNS, 4.26 µM. Besides, the GI50 is 1420 nM in the experiment on SR leukemia, 6060 nM in the experiment with T-47D breast, 8.15 µM in the experiment on TK-10 renal and 3.87 µM with UACC-257 melanoma. The TGI was greater than 100 µM in the experiment on 786-0 renal; 38.2 µM in the experiment on HOP-92 NSCLC; 17.2 µM in the experiment with HS 578T breast; greater than 100 µM in the experiment with KM12 colon; 5.54 µM in the experiment with NCI-H522 lung; 40.4 µM in the experiment on SNB-19 CNS. The TGI was 21.4 µM with SR leukemia, greater than 100 µM with T-47D breast, 55.7 µM in the experiment on TK-10 renal and 84.4 µM in the experiment on UACC-257 melanoma.
On to `Cc1ccc(NSc2ccccc2[N+](=O)[O-])cc1`, for which the GI50 with 786-0 renal was 1500 nM; with HOP-92 NSCLC, 502 nM; in the experiment on HS 578T breast, 921 nM; in the experiment on KM12 colon, 141 nM; in the experiment on NCI-H522 lung it was 435 nM; in the experiment on SNB-19 CNS, 1.22 µM. The GI50 in the experiment with SR leukemia is 113 nM; in the experiment with T-47D breast it was 444 nM; in the experiment on TK-10 renal it was 10.4 µM; in the experiment on UACC-257 melanoma, 17.4 µM. Also, the TGI in the experiment with 786-0 renal was found to be 16.3 µM; in the experiment on HOP-92 NSCLC it was 13.7 µM; in the experiment on HS 578T breast, 13.8 µM; in the experiment on KM12 colon, 12.5 µM; with NCI-H522 lung it was 13.4 µM; with SNB-19 CNS it was 19.6 µM. Further, the TGI stood at 36 µM in the experiment with SR leukemia, 40.4 µM in the experiment with T-47D breast, 25.4 µM with TK-10 renal and 36.7 µM in the experiment on UACC-257 melanoma.
With `N#Cc1c(NC(=O)c2cccc3ccccc23)sc2c1CCCC2`, the GI50 is 101 nM with 786-0 renal; 457 nM in the experiment on HOP-92 NSCLC; 15.6 nM in the experiment on HS 578T breast; 105 nM in the experiment on KM12 colon; 24 nM in the experiment on NCI-H522 lung; 0.107 µM in the experiment with SNB-19 CNS. For the same molecule, the GI50 with SR leukemia is 26 nM; in the experiment on T-47D breast, 101 nM. Moreover, the TGI is greater than 25 µM in the experiment with 786-0 renal; greater than 25 µM in the experiment on HOP-92 NSCLC; greater than 25 µM with KM12 colon; 0.259 µM in the experiment on NCI-H522 lung; greater than 25 µM with SNB-19 CNS; greater than 9.97 µM in the experiment on SR leukemia. In addition, the TGI with T-47D breast is greater than 20.1 µM; with UACC-257 melanoma, greater than 25 µM.
`O=C(Nc1cccnc1)c1cccc([N+](=O)[O-])c1`: the GI50 in the experiment on 786-0 renal is greater than 100000 nM; in the experiment with HOP-92 NSCLC, greater than 100000 nM; in the experiment on HS 578T breast, greater than 100000 nM; with KM12 colon, greater than 100000 nM; in the experiment with NCI-H522 lung, greater than 100000 nM; with SNB-19 CNS, greater than 100 µM. Moreover, the GI50 in the experiment with SR leukemia was greater than 100000 nM; in the experiment on T-47D breast, greater than 100000 nM; in the experiment with TK-10 renal, greater than 100 µM; in the experiment with UACC-257 melanoma, greater than 100 µM. The TGI with 786-0 renal, with HOP-92 NSCLC, in the experiment on HS 578T breast, in the experiment with KM12 colon, in the experiment on NCI-H522 lung and in the experiment on SNB-19 CNS was greater than 100 µM in each case. The TGI in the experiment on SR leukemia, with T-47D breast, with TK-10 renal and with UACC-257 melanoma was greater than 100 µM in each case.
Take `Cc1cc(NCCCCNc2ccnc3cc(Cl)ccc23)nc(Nc2ccc(C(=O)N3CCCC3)cc2)n1`: the GI50 in the experiment on 786-0 renal was 1570 nM; in the experiment with HOP-92 NSCLC it was 1580 nM; in the experiment with HS 578T breast it was 1850 nM; in the experiment on KM12 colon it was 3000 nM; in the experiment on NCI-H522 lung, 2160 nM; with SNB-19 CNS it was 4.5 µM. For the same molecule, the GI50 in the experiment on SR leukemia was 267 nM; in the experiment on T-47D breast, 2640 nM; in the experiment on TK-10 renal, 1.84 µM; in the experiment on UACC-257 melanoma it was 2.09 µM. For the same molecule, the TGI turned out to be 3.02 µM in the experiment on 786-0 renal; 3.7 µM with HOP-92 NSCLC; 4.74 µM with HS 578T breast; 11.3 µM in the experiment on KM12 colon; 4.87 µM with NCI-H522 lung; 18.1 µM in the experiment with SNB-19 CNS. Moreover, the TGI is 1.37 µM in the experiment with SR leukemia, 6.76 µM with T-47D breast, 4.25 µM in the experiment on TK-10 renal and 4.19 µM in the experiment with UACC-257 melanoma.
In the case of `CS(=O)(=O)Nc1cccc(-c2ccc3c(NC(=O)C4CC4)n[nH]c3c2)c1`, the GI50 is 12200 nM with 786-0 renal; 2220 nM in the experiment on HS 578T breast; 1390 nM in the experiment on KM12 colon; 308 nM with NCI-H522 lung; 3.64 µM with SNB-19 CNS; 355 nM in the experiment with SR leukemia. Besides, the values for the GI50 in the experiment on T-47D breast, with TK-10 renal and in the experiment on UACC-257 melanoma were 1200 nM, 24.6 µM and greater than 25 µM, respectively. In addition, the TGI in the experiment with 786-0 renal, in the experiment on HOP-92 NSCLC, in the experiment with HS 578T breast, in the experiment on KM12 colon, in the experiment with SNB-19 CNS and in the experiment with SR leukemia was greater than 25 µM each time. The TGI in the experiment with T-47D breast, in the experiment with TK-10 renal and in the experiment with UACC-257 melanoma was greater than 25 µM throughout.
As to `COc1cc(OC)c2cc(C(=O)O)c(=O)oc2c1`, the GI50 in the experiment with 786-0 renal is greater than 95400 nM; in the experiment on HOP-92 NSCLC, greater than 100000 nM; with KM12 colon, greater than 100000 nM; with NCI-H522 lung, greater than 71500 nM; in the experiment on SNB-19 CNS it was greater than 100 µM; with SR leukemia, greater than 100000 nM. In addition, the GI50 in the experiment with T-47D breast was greater than 100000 nM; in the experiment on TK-10 renal it was greater than 74.5 µM; with UACC-257 melanoma, greater than 85.9 µM. Further, the TGI with 786-0 renal was greater than 100 µM; in the experiment with HOP-92 NSCLC it was greater than 100 µM; in the experiment with HS 578T breast, greater than 51.4 µM; in the experiment with KM12 colon it was greater than 100 µM; with NCI-H522 lung, greater than 100 µM; with SNB-19 CNS it was greater than 100 µM. Also, the TGI with SR leukemia, with T-47D breast, with TK-10 renal and in the experiment with UACC-257 melanoma was greater than 100 µM each time.
On to `Oc1ccc2ccccc2c1C(c1ccc(Cl)cc1)c1c(O)ccc2ccccc12`, for which the TGI turned out to be 12.4 µM with 786-0 renal; 4.89 µM in the experiment on HOP-92 NSCLC; 8.62 µM with HS 578T breast; 7.87 µM with KM12 colon; 5.17 µM with NCI-H522 lung; 19 µM with SNB-19 CNS. The TGI with SR leukemia is greater than 25.7 µM; in the experiment on T-47D breast, 12.3 µM; with TK-10 renal, 11.1 µM; with UACC-257 melanoma it was 15.9 µM.
With `Cc1[nH]n(-c2ccc(S(=O)(=O)O)cc2)c(=O)c1N=Nc1ccccc1`, the TGI with 786-0 renal, in the experiment on HOP-92 NSCLC, in the experiment with HS 578T breast, in the experiment on KM12 colon, with NCI-H522 lung and in the experiment with SNB-19 CNS was greater than 100 µM throughout. The TGI in the experiment with SR leukemia, with T-47D breast, in the experiment with TK-10 renal and in the experiment with UACC-257 melanoma was greater than 100 µM in each case.
On to `O=C(Nc1cccc([N+](=O)[O-])c1)c1ccc2ccccc2c1O`, for which the GI50 was 4460 nM in the experiment on 786-0 renal; 1770 nM with HOP-92 NSCLC; 2910 nM with HS 578T breast; 4410 nM in the experiment on KM12 colon; 1890 nM with NCI-H522 lung; 4.05 µM in the experiment with SNB-19 CNS. Moreover, the GI50 was 3940 nM with SR leukemia, 2640 nM in the experiment on T-47D breast, 4.59 µM in the experiment with TK-10 renal and 2.42 µM with UACC-257 melanoma. In addition, the TGI in the experiment with 786-0 renal was greater than 100 µM; in the experiment on HOP-92 NSCLC, 6.71 µM; with HS 578T breast, greater than 28.4 µM; in the experiment with KM12 colon it was greater than 81.2 µM; with NCI-H522 lung, 6.96 µM; in the experiment with SNB-19 CNS it was greater than 85.4 µM. For the same molecule, the TGI in the experiment with SR leukemia is greater than 29.1 µM; with T-47D breast, greater than 30.4 µM; in the experiment on TK-10 renal, greater than 47.4 µM; with UACC-257 melanoma, 7.34 µM.
As to `COc1cc2c(cc1OCCCCCn1c(-c3ccco3)nc3ccccc31)N=C[C@@H]1CCCN1C2=O`, the GI50 in the experiment on 786-0 renal is less than 10 nM; in the experiment on HOP-92 NSCLC it was less than 12.2 nM; in the experiment with HS 578T breast, less than 10 nM; in the experiment on KM12 colon, less than 10 nM; with NCI-H522 lung it was less than 10 nM; in the experiment on SR leukemia, less than 10 nM. Besides, the GI50 was less than 10 nM in the experiment with T-47D breast, 0.0267 µM in the experiment with TK-10 renal and less than 0.01 µM in the experiment with UACC-257 melanoma. In addition, the TGI in the experiment on 786-0 renal is 1.3 µM; in the experiment on HS 578T breast, less than 0.0349 µM; in the experiment on SR leukemia, less than 0.01 µM; with TK-10 renal, 35.6 µM; with UACC-257 melanoma it was less than 0.01 µM.
